Laboratory results reported in US7354935B2, “Radiolabeled neurokinin-1 receptor antagonists” (Merck & Co. Inc., priority 2002, dated 2008).

Tests used:
[1] = Percent of parent tracer remaining in monkey plasma (plasma half-life comparison, TLC/gamma counting); type: in vivo, rhesus monkey; conditions: for % parent tracer remaining in monkey plasma / Amount of tracer remaining in plasma relative to the protonated tracer: rhesus monkey; for Amount of tracer remaining in plasma relative to the protonated tracer: versus Compound A
Procedure: To compare the plasma half-life of [^18F][2-fluoromethoxy-5-(5-trifluoromethyl-tetrazol-1-yl)-benzyl]-([2S,3S]-2-phenyl-piperidin-3-yl)-amine (Compound A) and [^18F][2-fluorodideuteromethoxy-5-(5-trifluoromethyl-tetrazol-1-yl)-benzyl]-([2S,3S]-2-phenyl-piperidin-3-yl)-amine (Compound B) in rhesus monkey, ˜5 mCi of each radiotracer (in saline) was injected by iv into an anesthetized monkey. At various time points, whole blood was drawn, mixed with 0.02 mL of acetonitrile and centrifuged for 3-5 minutes at 5000 rpm. A 0.02 mL aliquot of the acetonitrile extract was spotted on a 5×7 cm TLC plate along with the cold standard and developed using 60:40:0.1 ethyl acetate:methanol:triethylamine. The TLC plate was cut into four sections pertaining to the origin, to determine the amount of fluoride present, the section between the origin and where the standard eluted, to determine polar metabolites, the section where the parent compound eluted, to determine the amount of parent compound remaining, and the area between the parent compound and the solvent front for nonpolar metabolites. The TLC strips were then counted in a gamma counter to determine the number of counts for each section of TLC plate. The percentage of the total counts that were due to the remaining parent compound was determined. […] With the higher prolonged plasma levels of the deuterated tracer, more time is available for a larger specific signal to develop, and for the tracer to accumulate in brain regions that have a low receptor concentration and could be difficult to image using the protonated tracer.

[2] = Brain levels of the tracer; type: in vivo; conditions: comparison in words
NK1 receptor = target: T1, NK1 receptor (Macaca mulatta, UniProt F7GQV6); test: Chase study with an unlabelled NK1 antagonist, PET regions of interest (chaseability); type: in vivo, rhesus monkey; conditions: for Remaining Specific Binding in Rhesus Monkey after 1 mpk Chase at 180 Minutes with an NK1 Antagonist: striatum minus cerebellum
T1 construct: from tissue; host or cells: brain (striatum and other regions) of a living rhesus monkey, PET imaging
T1 sequence (F7GQV6 1-407): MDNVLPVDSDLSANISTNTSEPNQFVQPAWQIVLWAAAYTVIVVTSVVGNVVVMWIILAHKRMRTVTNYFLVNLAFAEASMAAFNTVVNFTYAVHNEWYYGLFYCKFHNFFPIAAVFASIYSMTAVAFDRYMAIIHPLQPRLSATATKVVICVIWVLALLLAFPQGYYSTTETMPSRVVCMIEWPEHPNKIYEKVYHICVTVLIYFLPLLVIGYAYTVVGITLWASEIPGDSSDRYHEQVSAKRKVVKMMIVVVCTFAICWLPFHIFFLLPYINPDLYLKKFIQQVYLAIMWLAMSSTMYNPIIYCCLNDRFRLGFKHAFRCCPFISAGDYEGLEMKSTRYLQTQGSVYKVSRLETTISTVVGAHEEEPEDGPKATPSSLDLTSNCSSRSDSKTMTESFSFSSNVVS
Procedure: A bolus of an unlabelled NK1 antagonist was administered 180 minutes after a bolus injection of either tracer. From the resulting images, regions of interest were drawn to determine the amount of radioactivity present in different brain regions. […] Also, using the 70% level of chase as a comparison (30% remaining specific binding), the fluoroethoxy compound reaches this level ˜50 minutes before the dideuterofluoromethoxy analog reaches this same level. Because the fluoroethoxy compound [^18F][2-fluoroethoxy-5-(5-trifluoromethyl-tetrazol-1-yl)-benzyl]-([2S,3S]-2-phenyl-piperidin-3-yl)-amine chases from the striatum faster than the fluoromethoxy analog, a more accurate picture of what the true receptor occupancy is can be obtained using the fluoroethoxy analog.

[3] = 5 minutes after iv injection of ~5 mCi
[4] = 15 minutes after iv injection of ~5 mCi
[5] = 30 minutes after iv injection of ~5 mCi
[6] = 45 minutes after iv injection of ~5 mCi
[7] = 60 minutes after iv injection of ~5 mCi
[8] = 120 minutes after iv injection of ~5 mCi
[9] = 180 minutes after iv injection of ~5 mCi

% parent tracer remaining in monkey plasma [1, 3] [%] | % parent tracer remaining in monkey plasma [1, 4] [%] | % parent tracer remaining in monkey plasma [1, 5] [%] | % parent tracer remaining in monkey plasma [1, 6] [%] | % parent tracer remaining in monkey plasma [1, 7] [%] | % parent tracer remaining in monkey plasma [1, 8] [%] | % parent tracer remaining in monkey plasma [1, 9] [%] | Brain levels of the tracer relative to the [18F]fluoromethoxy compound [2] | Metabolic stability relative to the [18F]fluoromethoxy compound of U.S. Pat. No. 6,241,964 ([1]; comparison in words) | Plasma half-life relative to the [18F]fluoromethoxy compound of U.S. Pat. No. 6,241,964 ([1]; comparison in words) | Amount of tracer remaining in plasma relative to the protonated tracer ([1]; end of the experiment (3 hours)) | Remaining Specific Binding in Rhesus Monkey after 1 mpk Chase at 180 Minutes with an NK1 Antagonist (NK1 receptor; 230 minutes after tracer) [%] | Remaining Specific Binding in Rhesus Monkey after 1 mpk Chase at 180 Minutes with an NK1 Antagonist (NK1 receptor; 270 minutes after tracer) [%] | Displacement from the NK1 receptor when unlabelled compounds are administered, relative to the [18F]fluoromethoxy compound (NK1 receptor; comparison in words) | Compound | Amount of tracer remaining in plasma relative to the protonated tracer ([1]; all time points examined) | Remaining Specific Binding in Rhesus Monkey after 1 mpk Chase at 180 Minutes with an NK1 Antagonist (NK1 receptor; 195 minutes after tracer) [%] | Remaining Specific Binding in Rhesus Monkey after 1 mpk Chase at 180 Minutes with an NK1 Antagonist (NK1 receptor; 205 minutes after tracer) [%] | Time at which tracer begins to chase (is displaced from the receptor) after administration of the unlabelled antagonist (NK1 receptor; striatum, rhesus monkey) | Remaining Specific Binding in Rhesus Monkey after 1 mpk Chase at 180 Minutes with an NK1 Antagonist (NK1 receptor; 220 minutes after tracer) [%] | Time by which the 70% level of chase (30% remaining specific binding) is reached before the dideuterofluoromethoxy analog (NK1 receptor; striatum, rhesus monkey, versus Compound B) [minutes]
72 | 55 | 38 | 35 | 25 | 16 | 9 | – | – | – | – | – | – | – | FC(F)(F)c1nnnn1-c1ccc(OC[18F])c(CN[C@H]2CCCN[C@H]2c2ccccc2)c1 [Compound A, [^18F][2-fluoromethoxy-5-(5-trifluoromethyl-tetrazol-1-yl)-benzyl]-([2S,3S]-2-phenyl-piperidin-3-yl)-amine, reference compound] | – | – | – | – | – | –
91 | 87 | 75 | 39 | 41 | 23 | 20 | relatively higher brain levels | metabolically more stable | longer plasma half-life | twice as much | ~55 | ~30 | – | [2H]C([2H])([18F])Oc1ccc(-n2nnnc2C(F)(F)F)cc1CN[C@H]1CCCN[C@H]1c1ccccc1 [Compound B, [^18F][2-fluorodideuteromethoxy-5-(5-trifluoromethyl-tetrazol-1-yl)-benzyl]-([2S,3S]-2-phenyl-piperidin-3-yl)-amine] | more of the deuterated tracer remaining in the plasma than the protonated tracer | ~96 | ~85 | about 30 minutes | – | –
– | – | – | – | – | – | – | – | – | – | – | – | – | – | FC(F)(F)c1nnnn1-c1ccc(OCC[18F])c(CN[C@H]2CCCN[C@H]2c2ccccc2)c1 [Compound C, [^18F][2-fluoroethoxy-5-(5-trifluoromethyl-tetrazol-1-yl)-benzyl]-([2S,3S]-2-phenyl-piperidin-3-yl)-amine] | – | ~85 | ~55 | almost immediately | ~30 | ~50
– | – | – | – | – | – | – | – | – | – | – | – | – | faster | [^18F][2-fluoroethoxy-5-(5-trifluoromethyl-tetrazol-1-yl)-benzyl]-([2S,3S]-2-phenyl-piperidin-3-yl)-amine [Compound C] | – | – | – | – | – | –
